Results: patent US10092526B2, “Compositions and methods for treating respiratory injury or disease” (University of Pittsburgh—Of the Commonwealth System of …, priority 2013, dated 2018)
In brackets after ≈: the same amount, converted by molar mass. Read-outs that look alike come from different tables or passages of the source.

Assays:
[1] = system: U937 monocytes; assay: U937 monocyte cytotoxicity, Trypan blue staining; type: cell-based
Description: (§1) U937 monocytes (0.2 ml at 0.3 x 10^6/ml) were treated with each compound at different concentrations for 16 hours. The cells were then stained with Trypan blue to identify dead cells, and to calculate the LC50. Combined values were used to generate therapeutic indexes (TI)=LC50/IC50.

[2] = U937 monocyte cytotoxicity, Trypan blue staining; type: cell-based; details: human
Description: as §1

[3] = system: IL1β; assay: IC50IL1β measurements (FIG. 1); type: cell-based
[4] = system: TNFα cytokine release; assay: LPS-induced TNFα cytokine release in PBMC (ELISA); type: cell-based; details: LPS 50 ng/ml, 16 hours, TNFα release by ELISA
Description: Peripheral blood mononuclear cells (PBMC) (0.2 ml at 0.3×10^6/ml) were treated with lipopolysaccharide (LPS) (50 ng/ml) for 16 hours concurrently with each compound tested at different concentrations. TNFα cytokine release was monitored by ELISA. These concentrations were used to calculate the IC50.

[5] = system: cigarette smoke induced chronic lung inflammation; assay: Smoke induced chronic lung inflammation (Example 6); type: in vivo, mice; details: cigarette smoke 5 weeks, single 100 ug dose i.p., 18 hours
Description: Mice were exposed to cigarette smoke for 5 weeks before a single 100 ug dose of Compound 014 was administered by i.p. injection. The mice were euthanized 18 hours later, and lungs were lavaged with saline, harvested, and then homogenized. Lavage protein, cell counts and cytokine secretion were measured. (n=3 mice/group, *P<0.05 versus control)

[6] = system: Dexamethasone-induced muscle atrophy; assay: Dexamethasone induced muscle myopathy model (Example 8); type: in vivo, C57BL mice
Description: C57BL mice were given daily i.p. injection of 0.1 ml of vehicle or Dexamethasone (10 mg/kg/d) for 14 days. Some mice were also given BC-1261 (also referred to herein as compound 014) in drinking water with estimated dose of 0.5, 2 and 5 mg/kg/d. Mice were then sacrificed and (tibialis anterior)TA muscle were removed, photographed (A), weighted (C), processed for H&E staining (B) and protein immunoblotting (E).

[7] = system: Pseudomonas aeruginosa strain PA103; assay: Pseudomonas induced pneumonia, Compound 014 (Example 5); type: in vivo, mice; details: 30 μg or 150 μg IP
Description: Mice were administered either 30 μg or 150 μg of Compound 014 by IP injection, and these mice were then challenged with Pseudomonas aeruginosa strain PA103 (2.5×10^4 CFU/mouse, i.t.) for 18 hours. Mice were monitored on a FlexiVent to measure lung mechanics throughout the procedure. The mice were then sacrificed and lungs were lavaged with saline, harvested, and then homogenized. Lavage cells were processed with cytosin and stained with May-Grunwald and Geimsa, and H&E staining was performed on lung samples. Lavage protein, cell count, and cytokine secretion were measured. (n=4 mice/group, *P<0.05 versus PA103 versus Vehicle)

[8] = system: lung transplant rejection; assay: Lung transplant acute rejection model (Example 9); type: in vivo, mouse; details: 5 mg/kg/d i.p. 2 days then drinking water 5 mg/kg/d 5 days
Description: Left lung from BALB/C mouse was surgically removed and transplanted into C57/BL mouse. Mice were given vehicle or BC-1261 (5 mg/kg/d i.p. injection) for 2 days until fully recovered. After that, BC-1261 (also referred to herein as compound 014) was administered through drinking water (5 mg/kg/d) for additional 5 days. Mice were then sacrificed, and the transplanted lungs were removed for H&E staining.

[9] = system: IMQ induced psoriasis; assay: IMQ induced psoriasis model (Example 7); type: in vivo, BALB/c mice
From the text: An objective scoring system was developed based on the clinical Psoriasis Area and Severity Index (PASI), except that for the mouse model the affected skin area is not taken into account in the overall score. Erythema and scaling were scored independently on a scale from 0 to 4: 0, none; 1, slight; 2, moderate; 3, marked; 4, very marked. The level of erythema was scored using a scoring table with red taints. At day 7, mice were euthanized and spleens were removed for weight measuring.
Female BALB/c mice at 8 to 11 wk of age received a daily topical dose of 62.5 mg of commercially available IMQ cream (5%) (Aldara; 3M Pharmaceuticals) on the shaved back and the right ear for 5 or 6 consecutive days, translating in a daily dose of 3.125 mg of the active compound. Control mice were treated similarly with a control vehicle cream (Vaseline Lanette cream; Fagron). BC-1261 (also referred to herein as compound 014) were either given in drinking water or applied topically daily. To score the severity of inflammation of the back skin, an objective scoring system was developed based on the clinical Psoriasis Area and Severity Index (PASI), except that for the mouse model the affected skin area is not taken into account in the overall score. Erythema and scaling were scored independently on a scale from 0 to 4: 0, none; 1, slight; 2, moderate; 3, marked; 4, very marked. The level of erythema was scored using a scoring table with red taints. At day 7, mice were euthanized and spleens were removed for weight measuring. Skin and ear sample were also collected for H&E staining and epidermis thickness were measured and graphed. n=5-10 per group, *p<0.05.

[10] = therapeutic index (TI)=LC50/IC50
[11] = U937 monocytes, 16 hours, Trypan blue dead cells, read-out: LC50
[12] = Dexamethasone 10 mg/kg/d i.p. 14 days
[13] = PA103, vs vehicle control infected mice, FIG. 9

Compound: c1ccc(CNCCNCc2ccccc2)cc1 [Benzathine, reference compound]
- TI ([1]; human, 16 h): 16
- CC50 at 16 h [2]: 400 µg/mL (≈ 1660 µM)
- IC50 [3]: 25 µg/mL (≈ 104 µM)
- IC50 [4]: 25 µg/mL (≈ 104 µM)

Compound: c1cc(N2CCOCC2)ccc1CNCCNCc1ccc(N2CCOCC2)cc1 [Compound 001]
- TI [1, 10]: 13
- CC50 at 16 h [2, 11]: 260 µg/mL (≈ 633 µM)
- IC50 [4]: 20 µg/mL (≈ 48.7 µM)

Compound: c1cc(N2CCCC2)ccc1CNCCNCc1ccc(N2CCCC2)cc1 [Compound 002]
- TI [1, 10]: 11
- CC50 at 16 h [2, 11]: 7 µg/mL (≈ 18.5 µM)
- IC50 [4]: 0.6 µg/mL (≈ 1.58 µM)

Compound: c1cn(-c2ccc(CNCCNCc3ccc(-n4ccnc4)cc3)cc2)cn1 [Compound 003]
- TI [1, 10]: 142
- CC50 at 16 h [2, 11]: 130 µg/mL (≈ 349 µM)
- IC50 [4]: 0.7 µg/mL (≈ 1.88 µM)

Compound: c1cc(N2CCCCC2)ccc1CNCCNCc1ccc(N2CCCCC2)cc1 [Compound 004]
- TI [1, 10]: 33
- CC50 at 16 h [2, 11]: 27 µg/mL (≈ 66.4 µM)
- IC50 [3]: 0.8 µg/mL (≈ 1.97 µM)
- IC50 [4]: 0.8 µg/mL (≈ 1.97 µM)

Compound: c1ccc(-c2ccc(CNCCNCc3ccc(-c4ccccn4)cc3)cc2)nc1 [Compound 005]
- TI [1, 10]: 96
- IC50 [3]: 0.9 µg/mL (≈ 2.28 µM)
- IC50 [4]: 0.9 µg/mL (≈ 2.28 µM)

Compound: c1cc(N2CCCC2)ccc1CNCCCCNCc1ccc(N2CCCC2)cc1 [Compound 006]
- TI [1, 10]: 1
- CC50 at 16 h [2, 11]: 1 µg/mL (≈ 2.46 µM)
- IC50 [4]: 1 µg/mL (≈ 2.46 µM)

Compound: c1cc(N2CCCC2)ccc1CNCCCNCc1ccc(N2CCCC2)cc1 [Compound 007]
- TI [1, 10]: 2.9
- CC50 at 16 h [2, 11]: 3.2 µg/mL (≈ 8.15 µM)
- IC50 [4]: 1.1 µg/mL (≈ 2.8 µM)

Compound: c1ccc(CNCCNCc2ccc(-c3ccccn3)cc2)nc1 [Compound 008]
- TI [1, 10]: 30
- CC50 at 16 h [2, 11]: 45 µg/mL (≈ 141 µM)
- IC50 [4]: 1.5 µg/mL (≈ 4.71 µM)

Compound: c1cnn(-c2ccc(CNCCNCc3ccc(-n4cccn4)cc3)cc2)c1 [Compound 009]
- TI [1, 10]: 57
- CC50 at 16 h [2, 11]: 80 µg/mL (≈ 215 µM)
- IC50 [4]: 1.4 µg/mL (≈ 3.76 µM)

Compound: c1ccc(-c2ccc(CNCCCCNCc3ccc(-c4ccccn4)cc3)cc2)nc1 [Compound 010]
- TI [1, 10]: 14.7
- CC50 at 16 h [2, 11]: 22 µg/mL (≈ 52.1 µM)
- IC50 [3]: 1.5 µg/mL (≈ 3.55 µM)
- IC50 [4]: 1.5 µg/mL (≈ 3.55 µM)

Compound: c1csc(-c2ccc(CNCCNCc3ccc(-c4nccs4)cc3)cc2)n1 [Compound 011]
- TI [1, 10]: 21.3
- CC50 at 16 h [2, 11]: 8.5 µg/mL (≈ 20.9 µM)
- IC50 [4]: 0.4 µg/mL (≈ 0.984 µM)

Compound: c1csc(-c2ccc(CNCCNCc3ccc(-c4cccs4)cc3)cc2)c1 [Compound 012]
- TI [1, 10]: 1.6
- CC50 at 16 h [2, 11]: 1.8 µg/mL (≈ 4.45 µM)
- IC50 [4]: 1.1 µg/mL (≈ 2.72 µM)

Compound: c1coc(-c2ccc(CNCCNCc3ccc(-c4ccco4)cc3)cc2)c1 [Compound 013]
- TI [1, 10]: 2.8
- CC50 at 16 h [2, 11]: 5.5 µg/mL (≈ 14.8 µM)
- IC50 [4]: 1.9 µg/mL (≈ 5.1 µM)

Compound: c1cnc(-c2ccc(CNCCNCc3ccc(-c4ncccn4)cc3)cc2)nc1 [Compound 014]
- lavage cell counts ([5]; FIG. 12): reduced
- lavage protein concentration ([5]; FIG. 12): reduced
- lavage pro-inflammatory cytokine levels ([5]; FIG. 12C): reduction
- TRAF6 protein in TA muscle (immunoblotting) [6, 12]: degrading up-regulated TRAF6 protein
- muscle wasting (cross sectional measurements, TA muscle H&E staining) [6, 12]: prevented
- Dexamethasone-induced muscle atrophy ([6]; drinking water 0.5, 2 and 5 mg/kg/d, Dexamethasone 10 mg/kg/d i.p. 14 days): attenuates
- dexamethasone-induced tibialis anterior muscle loss ([6]; even at 0.5 mg/kg/d in drinking water): significantly ameliorates
- adverse effects of Pseudomonas on lung mechanics ([7]; PA103 2.5×10^4 CFU/mouse i.t., 18 hours): significantly ameliorated
- lavage cell counts [7, 13]: reduced
- lavage protein concentration [7, 13]: reduced
- lavage pro-inflammatory cytokine levels ([7]; PA103, vs vehicle control infected mice, FIG. 9C): reduction
- cell infiltrates (H&E staining) ([7]; PA103, vs vehicle control mice, FIG. 11): significantly reduced
- neutrophils in May-Grunwald and Geimsa smears ([7]; PA103, vs vehicle control smears, FIG. 10): significantly fewer neutrophils
- neutrophilia infiltrates induced by lung transplant rejection [8]: effectively ameliorates
- transplanted lung H&E staining, infiltrates ([8]; vs vehicle group): completely protected lung
- TI [1, 10]: 1025
- CC50 at 16 h [2, 11]: 410 µg/mL (≈ 1030 µM)
- ear thickness ([9]; IMQ model): reduces
- gross appearance ([9]; IMQ model): reduces
- spleen weight ([9]; IMQ model, day 7): reduces
- psoriasis index ([9]; IMQ model, score based on PASI): reduces
- IMQ induced psoriasis ([9]; in drinking water or applied topically daily, BALB/C mice, FIGS. 13-17): effectively ameliorates
- IC50 [3]: 0.4 µg/mL (≈ 1.01 µM)
- IC50 [4]: 0.4 µg/mL (≈ 1.01 µM)

Compound: c1ccc(-c2ccc(CNCCNCc3ccc(-c4ccccc4)cc3)cc2)cc1 [Compound 015]
- TI [1, 10]: 1
- CC50 at 16 h [2, 11]: 2 µg/mL (≈ 5.09 µM)
- IC50 [3]: 2 µg/mL (≈ 5.09 µM)
- IC50 [4]: 2 µg/mL (≈ 5.09 µM)

Compound: c1cnc(-c2ccc(CNCCCCNCc3ccc(-c4ncccn4)cc3)cc2)nc1 [Compound 016]
- TI [1, 10]: >25
- CC50 at 16 h [2, 11]: > 100 µg/mL
- IC50 [4]: 4 µg/mL (≈ 9.42 µM)

Compound: c1cc(N2CCCC2)ccc1CNCCCCCNCc1ccc(N2CCCC2)cc1 [Compound 017]
- TI [1, 10]: 20
- CC50 at 16 h [2, 11]: 4 µg/mL (≈ 9.51 µM)
- IC50 [4]: 0.2 µg/mL (≈ 0.475 µM)

Compound: Fc1cc(CNCCCCNCc2ccc(N3CCCC3)c(F)c2)ccc1N1CCCC1 [Compound 018]
- TI [1, 10]: 4
- CC50 at 16 h [2, 11]: 0.4 µg/mL (≈ 0.904 µM)
- IC50 [4]: 0.1 µg/mL (≈ 0.226 µM)

Compound: Cc1cc(CNCCCCNCc2ccc(N3CCCC3)c(C)c2)ccc1N1CCCC1 [Compound 019]
- TI [1, 10]: 2
- CC50 at 16 h [2, 11]: 1 µg/mL (≈ 2.3 µM)
- IC50 [4]: 0.5 µg/mL (≈ 1.15 µM)

Compound: Cc1cc(N2CCCC2)ccc1CNCCCCNCc1ccc(N2CCCC2)cc1C [Compound 020]
- TI [1, 10]: 10
- CC50 at 16 h [2, 11]: 2 µg/mL (≈ 4.6 µM)
- IC50 [4]: 0.2 µg/mL (≈ 0.46 µM)
